Reference: paper PMC4718399 (Nature chemical biology, 2015)

Columns and labels:
β2R [1] = target: T1, β2R (Homo sapiens, UniProt P07550, N187E, form not given); type: biochemical; conditions: 200μM solubilized lipid; for modulation of β2R activation by solubilized phospholipid: 200μM isoproterenol
β2R [2] = target: T1, β2R; assay: Bimane fluorescence spectroscopy; type: biochemical; conditions: for basal (agonist-free) bimane emission λmax: bimane-labelled receptor reconstituted in rHDL of the given lipid, no ligand; for rate and magnitude of change in λmax upon agonist: rHDL of the given lipid, 200 μM isoproterenol, relative to basal fluorescence in detergent
β2R [3] = target: T1, β2R; assay: Mass spectrometry quantification of lipids bound to purified β2R; conditions: β2R purified from Sf9 cells with 0.5% DDM

Row | Compound | modulation of β2R activation by solubilized phospholipid (β2R [1]) | basal (agonist-free) bimane emission λmax (β2R [2]) | rate and magnitude of change in λmax upon agonist (β2R [2]) | basal λmax shift (β2R [1]; 1μM β2R, 500μM DDM, 600μM cholate) [nm] | share of all β2R-bound lipids (β2R [3])
1 | CCCCCCCC/C=C\CCCCCCCC(=O)OC[C@H](COP(=O)([O-])OCC[N+](C)(C)C)OC(=O)CCCCCCC/C=C\CCCCCCCC [DOPC] | little or no effect | about 450 nm | intermediate |  | 
2 | CCCCCCCC/C=C\CCCCCCCC(=O)OC[C@H](COP(=O)(O)OCCN)OC(=O)CCCCCCC/C=C\CCCCCCCC [DOPE] | little or no effect | about 450 nm | smallest change and slowest rate of change |  | 
3 | CCCCCCCC/C=C\CCCCCCCC(=O)OC[C@H](COP(=O)(O)OCC(O)CO)OC(=O)CCCCCCC/C=C\CCCCCCCC (stereo partly shown) [DOPG] | strongest positive modulator | about 455 nm | fastest rate of change and the largest shift in λmax | 4 | over 7%
4 | CCCCCCCC/C=C\CCCCCCCC(=O)OC[C@H](COP(=O)(O)OC[C@H](N)C(=O)O)OC(=O)CCCCCCC/C=C\CCCCCCCC [DOPS] | positive effect albeit not as strong |  |  |  | 
5 | phosphatidylglycerol [PG] |  |  |  |  | over 16%
